What was measured:
[1] = system: MTAP^-/- HCT-116 cells; experiment: Cell proliferation (MTS), MTAP-/- HCT-116; type: cell-based, human; conditions: for Selectivity: HCT116 WT IC50 relative to HCT116 MTAP-/- IC50; for IC50: Homo sapiens, 240 h, MTAP-/- HCT-116, 10 days with compound, MTS reading, read-out: IC50 HCT116 MTAP-/-
Outline: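 MTAP-/- (CRISPR/Cas9 biallelic knockout) or wild-type HCT-116 cells seeded at 100 cells/well, treated next day with 8-point 3-fold dilutions (top 20 µM) for 10 days at 37 °C, 5% CO2. Viability read by MTS; IC50 from four-parameter logistic fit of inhibition rate vs log concentration.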

[2] = Human liver microsome stability; type: in vitro ADME; conditions: pH 7.4; human liver microsomes 0.5 mg/mL, compound 1 µM, NADPH 1 mM, 37 °C
Method: Experimental materials: human liver microsomes (purchased from BIOIVT);
PBS: 0.1 M KH2PO4 and K2HPO4 buffers, pH 7.4.
MgCl2: a certain amount of MgCl2 was weighed out and prepared into a 16 mM MgCl2 solution with PBS.
NADPH (Chinese name: reduced nicotinamide adenine dinucleotide phosphate, purchased from Sigma, Cat. No.: 481973-500 mg): a certain amount of NADPH was weighed out and a 4 mM solution of NADPH was prepared with a 16 mM MgCl2 solution, and the final incubation concentration was 1 mM.
Compounds: 4 µM solutions of the test compounds and positive compounds were prepared with PBS, and the final incubation concentration was 1 µM.
Liver microsomes (purchased from BIOIVT, Cat. No.: X008070): the liver microsomes were diluted to […] with PBS, and the final incubation concentration was 0.5 mg/mL.
The prepared test compound or positive compound was added to a test tube, and then the prepared NADPH was added. The mixture was mixed well. The mixture was pre-incubated in a thermostat incubator at 220 rpm at 37 °C for 5 min, and the prepared liver microsomes were added to start the reaction. All steps were performed in replicate wells. At 0 min, 15 min, 30 min, 45 min, and 60 min, a certain volume of glacial acetonitrile solution containing an internal standard was added to the corresponding tube to precipitate the protein. The mixture was vortexed for 5 min with shaking, and then centrifuged at 4000 rpm for 10 min. […] The samples were analyzed by LC-MS/MS.
The concentrations (peak area ratios) of the example compounds were determined by LC-MS/MS. Rate constants were obtained by plotting "Ln (residual amount of compound %)" versus "incubation time" in Excel, thereby calculating the half-lives and intrinsic clearances of the drugs and providing a basis for the prediction of the in-vivo clearance.
[formula] CLH = CLint × fu × Qh /(CLint×fu+Qh) [formula]
Stability in human liver microsomes

[3] = PK experiment in mice; conditions: female, BALB/c, mouse, plasma, po, 10 mg/kg
Method: Experimental materials: the experimental animals were healthy adult female BALB/c mice (provided by Sichuan Vital River Laboratory Animal Technology Co., Ltd.).
Administration mode and sample collection in mice: BALB/c female mice received oral intragastrical administration (10 mg/kg, vehicle: 0.5% methylcellulose/0.2% Tween 80), and 60 µL of whole blood from the venous plexus of the fundus of the mice at different time points was collected at 0.25 h, 0.5 h, 1 h, 2 h, 4 h, 6 h, 8 h, and 24 h after administration and centrifuged at 4000 rpm for 6 min to collect plasma.
10 µL of mouse plasma sample was added to 190 µL of acetonitrile solution containing an internal standard to precipitate protein. The mixture was vortexed for 10 min and centrifuged at 4000 rpm for 10 min. The supernatant was collected and added to a 96-well plate. The samples were analyzed by LC-MS/MS. The drug concentrations in the plasma of mice at different time points after intragastric administration of the example compounds were measured by an LC-MS/MS method, and the related pharmacokinetic parameters were calculated, such that the pharmacokinetic behavior of the compounds in the mice was studied, and the pharmacokinetic characteristics were evaluated.

[4] = system: wild-type HCT-116 cells; experiment: Cell proliferation (MTS), wild-type HCT-116; type: cell-based; conditions: Homo sapiens, 240 h; wild-type HCT-116, 10 days with compound, MTS reading; read-out: IC50 HCT116 WT
Outline: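 Wild-type HCT-116 cells were seeded at 100 cells/well in McCoy's 5A/10% FBS. From day 1 they were treated with compound in 3-fold dilutions (initial 20 µM, 8 points) for 10 days at 37° C. Proliferation was read by MTS on day 11, and IC50 was obtained from a four-parameter logistic fit.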

[5] = biological target: T1, hERG (Homo sapiens, UniProt Q12809); experiment: hERG test (Predictor hERG Fluorescence Polarization Assay Kit); type: binding; conditions: for inhibition at 3.5 h, 10 µM: human, probe Predictor hERG Tracer Red, 10 µM test substance, three duplicate wells; for IC50: only 10 µM tested
T1 construct: purchased ThermoFisher Scientific PV5365
T1 sequence (Q12809 whole entry): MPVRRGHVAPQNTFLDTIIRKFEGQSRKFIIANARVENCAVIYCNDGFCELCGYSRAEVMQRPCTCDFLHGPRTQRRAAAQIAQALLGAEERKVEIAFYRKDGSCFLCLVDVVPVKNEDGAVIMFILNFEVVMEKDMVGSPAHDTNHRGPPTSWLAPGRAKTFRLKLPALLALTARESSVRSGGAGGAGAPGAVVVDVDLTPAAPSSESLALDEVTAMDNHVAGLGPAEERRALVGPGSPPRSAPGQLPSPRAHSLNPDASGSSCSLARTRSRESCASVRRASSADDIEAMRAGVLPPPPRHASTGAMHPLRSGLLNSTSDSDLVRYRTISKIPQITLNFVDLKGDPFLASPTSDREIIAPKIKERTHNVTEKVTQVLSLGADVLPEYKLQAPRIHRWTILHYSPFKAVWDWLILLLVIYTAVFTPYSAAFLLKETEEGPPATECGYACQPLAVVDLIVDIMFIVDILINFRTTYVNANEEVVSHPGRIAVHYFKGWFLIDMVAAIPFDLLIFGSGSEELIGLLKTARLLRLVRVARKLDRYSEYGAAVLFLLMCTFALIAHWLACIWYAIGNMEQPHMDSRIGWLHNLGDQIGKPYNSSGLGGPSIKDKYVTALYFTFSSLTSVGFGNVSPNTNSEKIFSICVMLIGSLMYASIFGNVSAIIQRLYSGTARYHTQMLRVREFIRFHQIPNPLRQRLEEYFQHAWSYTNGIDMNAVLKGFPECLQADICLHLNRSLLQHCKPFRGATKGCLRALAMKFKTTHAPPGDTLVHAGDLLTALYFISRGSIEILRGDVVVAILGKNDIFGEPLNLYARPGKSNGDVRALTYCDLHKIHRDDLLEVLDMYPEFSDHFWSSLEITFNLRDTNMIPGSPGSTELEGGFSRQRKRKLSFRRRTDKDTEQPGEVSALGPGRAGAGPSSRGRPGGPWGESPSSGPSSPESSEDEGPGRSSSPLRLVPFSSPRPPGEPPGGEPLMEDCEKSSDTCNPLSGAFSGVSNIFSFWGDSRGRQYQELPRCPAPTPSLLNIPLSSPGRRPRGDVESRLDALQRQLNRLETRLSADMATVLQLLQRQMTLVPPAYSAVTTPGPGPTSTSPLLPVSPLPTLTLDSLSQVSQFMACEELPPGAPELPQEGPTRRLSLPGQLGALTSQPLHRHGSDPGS
Method: Predictor™ hERG Fluorescence Polarization Assay Kit (ThermoFisher Scientific, PV5365).
The procedures in the kit instructions were followed: 4× Predictor™ hERG Tracer Red, 4× E-4031, and 4× test substance solutions (final assay concentration: 10 µM) were prepared in advance. 5 µL Predictor™ hERG FP Assay Buffer and 5 µL Predictor™ hERG Membrane were added sequentially to the Assay Blank group in a 384-well plate. 2.5 µL Predictor™ hERG FP Assay Buffer, 2.5 µL of 4× E-4031, and 2.5 µL of 4× test substance were added to the negative control group, the positive control group, and the test substance group, respectively, and then 5 µL Predictor™ hERG Membrane and 2.5 µL of 4× Predictor™ hERG Tracer Red were sequentially added. The total volume of the experimental system was 10 µL, and three duplicate wells were set for each group. After loading, the plate was gently tapped to mix well and incubated at room temperature (25 °C) in the dark for 3.5 h. After the incubation was completed, the fluorescence polarization value mP was measured on a microplate reader, and G Factor was 2.14.
The inhibition rate of the test substance was calculated using the following formula: [formula]

[6] = PK experiment in rats; type: in vivo; conditions: rat; SD male rats, PO 10 mg/kg, vehicle 0.5% MC/0.2% Tween 80, plasma
Method: The samples were analyzed by LC-MS/MS. […] Table 6. Pharmacokinetic parameters for rats

SMILES | IC50 [1] [nM] | half-life at 1 µM [2] [min] | AUC(0-t) [3] [ng·h/mL] | Cmax [3] [ng/mL] | IC50 [4] [nM] | AUC(0-t) [6] [ng·h/mL] | Cmax [6] [ng/mL] | Selectivity [1] | inhibition at 3.5 h, 10 µM [5] [%] | IC50 [5] [nM]
CN(C(=O)c1ccc2nc(N)c3cnn(C)c3c2c1)C1COc2cc(C#Cc3cnn(C4CC4)c3)ccc21 (stereo not drawn) [Compound 4, 4-amino-N-(6-((1-cyclopropyl-1H-pyrazol-4-yl)ethynyl)-2,3-dihydrobenzofuran-3-yl)-N,1-dimethyl-1H-pyrazolo[4,3-c]quinoline-8-carboxamide] | 8 | 169 | 9150 ± 2240 | 634 ± 71 | 1320 |  |  | 165 |  | 
CN(C(=O)c1cc2c3c(c(N)nc2cc1F)COC3)[C@@H]1COc2cc(C#Cc3cnn(C4CC4)c3)ccc21 [Compound 16A, (S)-4-amino-N-(6-((1-cyclopropyl-1H-pyrazol-4-yl)ethynyl)-2,3-dihydrobenzofuran-3-yl)-7-fluoro-N-methyl-1,3-dihydrofuro[3,4-c]quinoline-8-carboxamide] | 13.9 |  | 23300 ± 5520 | 1600 ± 352 | 1160 | 13700 ± 2780 | 1280 ± 270 | 84 |  | 
CN(C(=O)c1cc2c3c(c(N)nc2cc1F)COC3)C1COc2cc(C#Cc3cnn(C)c3)ccc21 (stereo not drawn) [Compound 39, 4-amino-7-fluoro-N-methyl-N-(6-((1-methyl-1H-pyrazol-4-yl)ethynyl)-2,3-dihydrobenzofuran-3-yl)-1,3-dihydrofuro[3,4-c]quinoline-8-carboxamide] | 20 |  | 20900 ± 8400 | 2670 ± 180 | 2960 |  |  | 148 | 23.8 | > 10000
CN(C(=O)c1cc2c3c(c(N)nc2cc1Cl)COC3)C1COc2cc(C#Cc3cnn(C)c3)ccc21 (stereo not drawn) [Compound 40, 4-amino-7-chloro-N-methyl-N-(6-((1-methyl-1H-pyrazol-4-yl)ethynyl)-2,3-dihydrobenzofuran-3-yl)-1,3-dihydrofuro[3,4-c]quinoline-8-carboxamide] | 5.8 |  |  |  | 1460 |  |  | 252 | 22 | > 10000
Cc1c(C#Cc2ccc3c(c2)OC[C@H]3N(C)C(=O)c2cc3c4c(c(N)nc3cc2Cl)COC4)cnn1C [Compound 52A, (S)-4-amino-7-chloro-N-(6-((1,5-dimethyl-1H-pyrazol-4-yl)ethynyl)-2,3-dihydrobenzofuran-3-yl)-N-methyl-1,3-dihydrofuro[3,4-c]quinoline-8-carboxamide] | 3.2 |  | 14200 ± 2430 | 1500 ± 313 | 487 |  |  | 152 | 10.4 ± 49.1 | > 10000
CN(C(=O)c1cc2c3c(c(N)nc2cc1Cl)COC3)[C@@H]1COc2cc(C#Cc3cnn4c3CCCC4)ccc21 [Compound 91A, (S)-4-amino-7-chloro-N-methyl-N-(6-((4,5,6,7-tetrahydropyrazolo[1,5-a]pyridin-3-yl)ethynyl)-2,3-dihydrobenzofuran-3-yl)-1,3-dihydrofuro[3,4-c]quinoline-8-car boxamide] | 7.1 | 47.2 |  |  | 1390 |  |  | 195 |  | 
C#Cc1ccc2c(c1)OCC2N(C)C(=O)c1ccc2nc(N)c3cnn(C)c3c2c1 (stereo not drawn) [Reference Example 2] |  | 33.6 |  |  |  | 784 ± 595 | 131 ± 17 |  |  | 
C#Cc1ccc2c(c1)OC[C@H]2N(C)C(=O)c1cc2c3c(c(N)nc2cc1Cl)COC3 [Reference Example 5, reference compound] |  | 25.6 | 9080 ± 2790 | 1400 ± 165 |  | 2940 ± 438 | 549 ± 139 |  |  | 
Nc1nc2cnc(C(=O)N3CCOC[C@@H]3c3ccc(C(F)(F)F)cc3)cc2c2c1COC2 [Reference Example 7, reference compound] | 97.4 | 28.9 | 12600 ± 1920 | 1920 ± 76 | 2010 | 853 ± 79 | 477 ± 110 | 21 |  | 

More lines, main results first:

IC50 [1] [nM] | half-life at 1 µM [2] [min] | AUC(0-t) [3] [ng·h/mL] | Cmax [3] [ng/mL] | IC50 [4] [nM] | AUC(0-t) [6] [ng·h/mL] | Cmax [6] [ng/mL] | SMILES | Selectivity [1] | inhibition at 3.5 h, 10 µM [5] [%] | IC50 [5] [nM]
3.7 |  | 26900 ± 7450 | 2670 ± 421 | 426 |  |  | CN(C(=O)c1cc2c(cc1F)nc(N)c1cnn(C)c12)[C@@H]1COc2cc(C#Cc3cnn(C4CC4)c3)ccc21 [Compound 12A, (S)-4-amino-N-(6-((1-cyclopropyl-1H-pyrazol-4-yl)ethynyl)-2,3-dihydrobenzofuran-3-yl)-7-fluoro-N,1-dimethyl-1H-pyrazolo[4,3-c]quinoline-8-carboxamide] | 115 | 22.4 | > 10000
5.9 |  |  |  | 654 |  |  | Cc1ncccc1C#Cc1ccc2c(c1)OCC2N(C)C(=O)c1cc2c(cc1F)nc(N)c1cnn(C)c12 (stereo not drawn) [Compound 45, 4-amino-7-fluoro-N,1-dimethyl-N-(6-((2-methylpyridin-3-yl)ethynyl)-2,3-dihydrobenzofuran-3-yl)-1H-pyrazolo[4,3-c]quinoline-8-carboxamide] | 111 | 21 | > 10000
1.1 |  |  |  | 158 |  |  | CN1CCn2c(C#Cc3ccc4c(c3)OC[C@H]4N(C)C(=O)c3cc4c(cc3F)nc(N)c3cnn(C)c34)cnc2C1 [Compound 46A, (S)-4-amino-7-fluoro-N,1-dimethyl-N-(6-((7-methyl-5,6,7,8-tetrahydroimidazo[1,2-a]pyrazin-3-yl)ethynyl)-2,3-dihydrobenzofuran-3-yl)-1H-pyrazolo[4,3-c]quinoline-8-carboxamide] | 144 | 43.9 ± 18.8 | > 10000
8 |  | 10500 ± 2400 | 1810 ± 195 | 1000 |  |  | Cc1ncccc1C#Cc1ccc2c(c1)OC[C@H]2N(C)C(=O)c1cc2c3c(c(N)nc2cc1Cl)COC3 [Compound 57A, (S)-4-amino-7-chloro-N-methyl-N-(6-((2-methylpyridin-3-yl)ethynyl)-2,3-dihydrobenzofuran-3-yl)-1,3-dihydrofuro[3,4-c]quinoline-8-carboxamide] | 125 | 14.2 ± 18 | > 10000
2 |  | 23200 ± 3390 | 3830 ± 533 | 299 |  |  | CN(C(=O)c1cc2c(cc1F)nc(N)c1cnn(C)c12)[C@@H]1COc2cc(C#Cc3cnc4n3CCCC4)ccc21 [Compound 66A, (S)-4-amino-7-fluoro-N,1-dimethyl-N-(6-((5,6,7,8-tetrahydroimidazo[1,2-a]pyridin-3-yl)ethynyl)-2,3-dihydrobenzofuran-3-yl)-1H-pyrazolo[4,3-c]quinoline-8-carb oxamide] | 150 | 14.2 ± 14 | > 10000
 | 16.6 |  |  |  |  |  | C#Cc1ccc2c(c1)OCC2N(C)C(=O)c1cc2c(cc1F)nc(N)c1cnn(C)c12 (stereo not drawn) [Reference Example 1, reference compound] |  |  | 
